Data: the NIST ThermoML archive (doi:10.1021/acs.jced.8b00132)
Several values for one entry are separate records, joined by “and”; a condition that tells them apart may be missing. Equal values may be shown once. ± gives the expanded uncertainty stated by the source.

O=C(C(F)(F)C(F)(F)F)C(F)(C(F)(F)F)C(F)(F)F [dodecafluoro-2-methylpentan-3-one]
Conditions | thermal conductivity
433.25 K, 43 kPa, Gas, hot wire | 0.02108 ± 0.00099 W/m/K
433.25 K, 156 kPa, Gas, hot wire | 0.02107 ± 0.00099 W/m/K
433.27 K, 1298 kPa, Gas, transient hot wire | 0.02415 ± 0.00082 W/m/K
433.28 K, 371 kPa, Gas, hot wire | 0.0228 ± 0.0011 W/m/K and 0.02281 ± 0.0011 W/m/K
433.28 K, 922 kPa, Gas, transient hot wire | 0.02221 ± 0.0014 W/m/K
433.28 K, 49421 kPa, Liquid, transient hot wire | 0.0643 ± 0.0013 W/m/K
433.29 K, 49444 kPa, Liquid, transient hot wire | 0.06433 ± 0.0013 W/m/K
433.3 K, 9673 kPa, Liquid, transient hot wire | 0.04596 ± 0.00096 W/m/K
433.3 K, 22710 kPa, Liquid, transient hot wire | 0.05348 ± 0.0011 W/m/K
433.31 K, 9675 kPa, Liquid, transient hot wire | 0.04592 ± 0.00096 W/m/K
433.35 K, 1138 kPa, Gas, transient hot wire | 0.02299 ± 0.00076 W/m/K
433.36 K, 15082 kPa, Liquid, transient hot wire | 0.04913 ± 0.001 W/m/K
433.36 K, 22714 kPa, Liquid, transient hot wire | 0.0536 ± 0.0011 W/m/K
433.37 K, 162 kPa, Gas, hot wire | 0.02126 ± 0.001 W/m/K
433.37 K, 1138 kPa, Gas, transient hot wire | 0.02295 ± 0.00076 W/m/K
433.37 K, 15085 kPa, Liquid, transient hot wire | 0.04954 ± 0.001 W/m/K
433.38 K, 43 kPa, Gas, hot wire | 0.02108 ± 0.00099 W/m/K
433.38 K, 159 kPa, Gas, hot wire | 0.02129 ± 0.001 W/m/K
433.38 K, 6166 kPa, Liquid, transient hot wire | 0.04304 ± 0.0009 W/m/K
433.39 K, 43 kPa, Gas, hot wire | 0.02105 ± 0.00099 W/m/K
433.39 K, 6163 kPa, Liquid, transient hot wire | 0.04307 ± 0.0009 W/m/K
433.41 K, 34187 kPa, Liquid, transient hot wire | 0.05868 ± 0.0012 W/m/K
433.43 K, 922 kPa, Gas, transient hot wire | 0.02216 ± 0.0014 W/m/K
433.43 K, 34200 kPa, Liquid, transient hot wire | 0.05865 ± 0.0012 W/m/K
433.44 K, 922 kPa, Gas, transient hot wire | 0.02224 ± 0.0014 W/m/K
433.45 K, 3945 kPa, Liquid, transient hot wire | 0.04079 ± 0.00086 W/m/K
433.46 K, 3946 kPa, Liquid, transient hot wire | 0.04082 ± 0.00086 W/m/K
433.49 K, 9685 kPa, Liquid, transient hot wire | 0.046 ± 0.00096 W/m/K
433.5 K, 375 kPa, Gas, transient hot wire | 0.02215 ± 0.0014 W/m/K
433.5 K, 9681 kPa, Liquid, transient hot wire | 0.04597 ± 0.00096 W/m/K
433.51 K, 377 kPa, Gas, transient hot wire | 0.02227 ± 0.0014 W/m/K
433.52 K, 1139 kPa, Gas, transient hot wire | 0.02308 ± 0.00077 W/m/K and 0.02311 ± 0.00077 W/m/K
433.53 K, 654 kPa, Gas, transient hot wire | 0.02193 ± 0.0014 W/m/K
433.53 K, 655 kPa, Gas, transient hot wire | 0.02205 ± 0.0014 W/m/K
433.55 K, 15079 kPa, Liquid, transient hot wire | 0.04951 ± 0.001 W/m/K
433.55 K, 15081 kPa, Liquid, transient hot wire | 0.04953 ± 0.001 W/m/K
433.55 K, 22699 kPa, Liquid, transient hot wire | 0.05365 ± 0.0011 W/m/K
433.55 K, 22714 kPa, Liquid, transient hot wire | 0.05356 ± 0.0011 W/m/K
433.59 K, 6168 kPa, Liquid, transient hot wire | 0.04309 ± 0.0009 W/m/K
433.59 K, 6172 kPa, Liquid, transient hot wire | 0.04309 ± 0.0009 W/m/K
433.6 K, 922 kPa, Gas, transient hot wire | 0.02237 ± 0.0014 W/m/K
433.69 K, 1141 kPa, Gas, transient hot wire | 0.02332 ± 0.00077 W/m/K
433.7 K, 374 kPa, Gas, transient hot wire | 0.02216 ± 0.0014 W/m/K
433.7 K, 375 kPa, Gas, transient hot wire | 0.02227 ± 0.0014 W/m/K
433.7 K, 1140 kPa, Gas, transient hot wire | 0.02335 ± 0.00077 W/m/K
433.7 K, 9688 kPa, Liquid, transient hot wire | 0.04596 ± 0.00096 W/m/K
433.7 K, 9691 kPa, Liquid, transient hot wire | 0.046 ± 0.00096 W/m/K
433.72 K, 652 kPa, Gas, transient hot wire | 0.02204 ± 0.0014 W/m/K
433.74 K, 651 kPa, Gas, transient hot wire | 0.02205 ± 0.0014 W/m/K
433.76 K, 15088 kPa, Liquid, transient hot wire | 0.04948 ± 0.001 W/m/K
433.76 K, 15091 kPa, Liquid, transient hot wire | 0.04951 ± 0.001 W/m/K
433.79 K, 922 kPa, Gas, transient hot wire | 0.02242 ± 0.0014 W/m/K
433.81 K, 6177 kPa, Liquid, transient hot wire | 0.04299 ± 0.0009 W/m/K
433.82 K, 6182 kPa, Liquid, transient hot wire | 0.04309 ± 0.0009 W/m/K
433.87 K, 1141 kPa, Gas, transient hot wire | 0.02354 ± 0.00078 W/m/K
433.88 K, 1141 kPa, Gas, transient hot wire | 0.02356 ± 0.00078 W/m/K
433.89 K, 373 kPa, Gas, transient hot wire | 0.02231 ± 0.0014 W/m/K
433.9 K, 373 kPa, Gas, transient hot wire | 0.02227 ± 0.0014 W/m/K
433.92 K, 9693 kPa, Liquid, transient hot wire | 0.04597 ± 0.00096 W/m/K
433.92 K, 9695 kPa, Liquid, transient hot wire | 0.04596 ± 0.00096 W/m/K
433.94 K, 648 kPa, Gas, transient hot wire | 0.02211 ± 0.0014 W/m/K
433.94 K, 649 kPa, Gas, transient hot wire | 0.02204 ± 0.0014 W/m/K
433.96 K, 922 kPa, Gas, transient hot wire | 0.02254 ± 0.0014 W/m/K
433.98 K, 922 kPa, Gas, transient hot wire | 0.02253 ± 0.0014 W/m/K
434.12 K, 372 kPa, Gas, transient hot wire | 0.02229 ± 0.0014 W/m/K and 0.02228 ± 0.0014 W/m/K
434.14 K, 645 kPa, Gas, transient hot wire | 0.02216 ± 0.0014 W/m/K
434.14 K, 646 kPa, Gas, transient hot wire | 0.02214 ± 0.0014 W/m/K
434.33 K, 371 kPa, Gas, transient hot wire | 0.02233 ± 0.0014 W/m/K
434.35 K, 371 kPa, Gas, transient hot wire | 0.02232 ± 0.0014 W/m/K
452.91 K, 2283 kPa, Gas, transient hot wire | 0.03823 ± 0.0024 W/m/K
452.94 K, 2214 kPa, Gas, transient hot wire | 0.03736 ± 0.0023 W/m/K
452.96 K, 2283 kPa, Gas, transient hot wire | 0.03736 ± 0.0023 W/m/K
452.98 K, 2213 kPa, Gas, transient hot wire | 0.03655 ± 0.0022 W/m/K
452.99 K, 2283 kPa, Gas, transient hot wire | 0.03849 ± 0.0024 W/m/K
452.99 K, 2349 kPa, Gas, transient hot wire | 0.03688 ± 0.0023 W/m/K
453 K, 2137 kPa, Gas, transient hot wire | 0.033 ± 0.0021 W/m/K
453 K, 2214 kPa, Gas, transient hot wire | 0.0364 ± 0.0022 W/m/K
453 K, 2283 kPa, Gas, transient hot wire | 0.03799 ± 0.0023 W/m/K
453.01 K, 2349 kPa, Gas, transient hot wire | 0.03694 ± 0.0023 W/m/K
453.01 K, 2431 kPa, Gas, transient hot wire | 0.0358 ± 0.00089 W/m/K
453.03 K, 2213 kPa, Gas, transient hot wire | 0.03832 ± 0.0024 W/m/K
453.03 K, 2432 kPa, Gas, transient hot wire | 0.03591 ± 0.00087 W/m/K
453.04 K, 2137 kPa, Gas, transient hot wire | 0.03326 ± 0.0021 W/m/K
453.04 K, 2213 kPa, Gas, transient hot wire | 0.0384 ± 0.0024 W/m/K and 0.03766 ± 0.0023 W/m/K
